Counter-ions that a name gives are not always drawn.
biological target: T1, SCD1 (Mus musculus, UniProt P13516); assay: SCD assay: release of tritiated water from desaturation of 9,10-3H-stearoyl CoA, mouse liver microsomes; assay type: biochemical; settings: mouse liver microsomes as SCD source; 300 nM (9,10) 3H-stearoyl CoA; 25 minutes at rt; read-out: IC50 (nM), in vitro inhibition of SCD1
T1 construct: Mouse liver microsomes, prepared from mice fed a high-carbohydrate diet, were a source of the SCD; from tissue; host or cells: mouse liver microsomes (mice fed a high-carbohydrate diet)
T1 sequence (P13516 1-355): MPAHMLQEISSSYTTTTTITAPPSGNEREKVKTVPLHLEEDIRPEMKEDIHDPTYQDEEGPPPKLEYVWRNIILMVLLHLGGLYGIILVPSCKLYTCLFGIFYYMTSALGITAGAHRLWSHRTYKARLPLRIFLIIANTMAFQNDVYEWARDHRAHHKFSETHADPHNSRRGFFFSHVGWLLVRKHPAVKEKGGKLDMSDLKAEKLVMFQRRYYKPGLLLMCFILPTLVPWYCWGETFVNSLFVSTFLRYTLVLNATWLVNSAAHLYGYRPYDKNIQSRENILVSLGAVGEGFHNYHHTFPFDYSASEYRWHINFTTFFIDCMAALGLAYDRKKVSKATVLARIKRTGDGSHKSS
Text: Stearoyl CoA desaturase activity was monitored by a modification of the acyl carrier protein assay described by B. R. Talamo and K. Bloch in Anal. Biochem. 1968, 29, 300-304. The SCD assay monitors the release of tritiated water from the desaturation of 9,10-^3H-stearoyl CoA.
Mouse liver microsomes, prepared from mice fed a high-carbohydrate diet, were a source of the SCD and cyt b5 and cyt b5 reductase, necessary accessory proteins for the coupled reaction. Reaction mixtures for compound titrations contained 50 mM Tris HCl pH 7.5, 100 mM NaCl, 0.165 mg/mL BSA, 2.4% DMSO, 1 mM NADH, 0.03% T-20, and 300 nM (9,10) ^3H-stearoyl CoA (Perkin-Elmer). Reactions were initiated upon the addition of 4 ug/mL SCD microsomes. Incubations were terminated after 25 minutes at rt with cold 6% TCA. After standing 10 minutes at 4° C., samples were centrifuged 15 minutes at 4000 rpm to pellet precipitated protein. Supernatants were added to microtiter plates containing suspensions of activated charcoal (Darco G-60, Fisher Scientific) and mixed by inversion. Plates were then centrifuged to separate ^3H—H2O product from charcoal-bound reactants. Supernatants were quantitated in a Perkin Elmer Topcount 384 after solubilization in ScintiSafe Plus 50% (Fisher Scientific).
Inhibition (%) of SCD activity by compounds was calculated according to the following formula: % Inhibition=100*[1−(CPMsample−CPMblank)/(CPMtotal−CPMblank)].

Row | SMILES | IC50 [nM]
1 | Nc1conc1-c1ccc(OCCCc2ccccc2)cc1 [Example 11, 3-[4-(3-Phenyl-propoxy)-phenyl]-isoxazol-4-ylamine] | 372
2 | CS(=O)(=O)c1ccc(CCc2ccc(-c3nocc3N)cc2)cc1 [Example 9, 3-{4-[2-(4-Methanesulfonyl-phenyl)-ethyl]-phenyl}-isoxazol-4-ylamine] | 280
3 | Nc1conc1-c1ccc(OCc2ccc3c(c2)C=CS3(=O)=O)cc1 [Example 33, 3-[4-(1,1-Dioxo-1H-1lambda*6*-benzo[b]thiophen-5-ylmethoxy)-phenyl]-isoxazol-4-ylamine] | 411
4 | Cc1onc(-c2ccc(OCc3ccc(S(C)(=O)=O)cc3)cc2)c1N [Example 13, 3-[4-(4-Methanesulfonyl-benzyloxy)-phenyl]-5-methyl-isoxazol-4-ylamine] | 864
5 | Nc1conc1-c1ccc(OCc2ccccc2)cc1 [Example 3, 3-(4-Benzyloxy-phenyl)-isoxazol-4-ylamine] | 464
6 | CS(=O)(=O)c1ccc(COc2ccc(-c3nocc3N)nc2)cc1 [Example 12, 3-[5-(4-Methanesulfonyl-benzyloxy)-pyridin-2-yl]-isoxazol-4-ylamine] | 466
7 | Nc1conc1-c1ccc(OCCc2ccccc2)cc1 [Example 10] | 1930
8 | N#Cc1cccc(COc2ccc(-c3nocc3N)cc2)c1 [Example 18, 3-[4-(4-Amino-isoxazol-3-yl)-phenoxymethyl]-benzonitrile hydrochloride] | 315
9 | Nc1conc1-c1ccc(OCc2ccc(S(=O)(=O)c3ccccc3)cc2)cc1 [Example 34, 3-[4-(4-Benzenesulfonyl-benzyloxy)-phenyl]-isoxazol-4-ylamine] | 673
10 | Nc1conc1-c1ccc(OCc2ccc([N+](=O)[O-])cc2)cc1 [Example 16, 3-[4-(4-Nitro-benzyloxy)-phenyl]-isoxazol-4-ylamine hydrochloride] | 264
11 | Nc1conc1-c1ccc(OCc2cccc(OC(F)(F)F)c2)cc1 [Example 24, 3-[4-(3-Trifluoromethoxy-benzyloxy)-phenyl]-isoxazol-4-ylamine hydrochloride] | 1350
12 | Nc1conc1-c1ccc(OCc2cccnc2)cc1 [Example 14, 3-[4-(Pyridin-3-ylmethoxy)-phenyl]-isoxazol-4-ylamine] | 2200
13 | Nc1conc1-c1ccc(OCc2cc(F)cc(F)c2)cc1 [Example 21, 3-[4-(3,5-Difluoro-benzyloxy)-phenyl]-isoxazol-4-ylamine hydrochloride] | 257
14 | Nc1conc1-c1ccc(OCc2ccc(Cl)cc2)cc1 [Example 25, 3-[4-(4-Chloro-benzyloxy)-phenyl]-isoxazol-4-ylamine hydrochloride] | 246
15 | Nc1conc1-c1ccc(OCC(=O)c2ccccc2)cc1 [Example 15, 2-[4-(4-Amino-isoxazol-3-yl)-phenoxy]-1-phenyl-ethanone hydrochloride] | 395
16 | Nc1conc1-c1ccc(OCc2ccc(C(F)(F)F)cc2)cc1 [Example 19, 3-[4-(4-Trifluoromethyl-benzyloxy)-phenyl]-isoxazol-4-ylamine hydrochloride] | 391
17 | Nc1conc1-c1ccc(OCc2ccccc2Cl)cc1 [Example 22, 3-[4-(2-Chloro-benzyloxy)-phenyl]-isoxazol-4-ylamine hydrochloride] | 1740
18 | Nc1conc1-c1ccc(OCc2ccc(F)cc2)cc1 [Example 2, 3-[4-(4-Fluoro-benzyloxy)-phenyl]-isoxazol-4-ylamine] | 612
19 | CS(=O)(=O)c1ccc(NCc2ccc(-c3nocc3N)cc2)cc1 [Example 7, 3-{4-[(4-methanesulfonyl-phenylamino)-methyl]-phenyl}-isoxazol-4-ylamine hydrochloride] | 817
20 | Nc1conc1-c1ccc(OCc2ccc3c(c2)CCS3(=O)=O)cc1 [Example 32, 3-[4-(1,1-Dioxo-2,3-dihydro-1H-1lambda*6*-benzo[b]thiophen-5-ylmethoxy)-phenyl]-isoxazol-4-ylamine] | 259
21 | N#Cc1ccc(COc2ccc(-c3nocc3N)cc2)cc1 [Example 17, 4-[4-(4-Amino-isoxazol-3-yl)-phenoxymethyl]-benzonitrile hydrochloride] | 603

Now from value to compound:

Row | IC50 [nM] | SMILES
22 | 104 | COc1ccc(COc2ccc(-c3nocc3N)cc2)cc1 [Example 4, 3-[4-(4-Methoxy-benzyloxy)-phenyl]-isoxazol-4-ylamine]
23 | 126 | Nc1conc1-c1ccc(OCc2ccc(I)cc2)cc1 [Example 28, 3-[4-(4-Iodo-benzyloxy)-phenyl]-isoxazol-4-ylamine]
24 | 135 | Nc1conc1-c1ccc(OCc2ccc(OC(F)(F)F)cc2)cc1 [Example 20, 3-[4-(4-Trifluoromethoxy-benzyloxy)-phenyl]-isoxazol-4-ylamine hydrochloride]
25 | 40 | CS(=O)(=O)c1ccc(COc2ccc(-c3nocc3N)cc2)cc1 [Example 6, 3-[4-(4-Methanesulfonyl-benzyloxy)-phenyl]-isoxazol-4-ylamine]
26 | 148 | Cc1ccc(COc2ccc(-c3nocc3N)cc2)cc1C [Example 23, 3-[4-(3,4-Dimethyl-benzyloxy)-phenyl]-isoxazol-4-ylamine hydrochloride]
27 | 152 | COC(=O)c1ccc(COc2ccc(-c3nocc3N)cc2)cc1 [Example 5, 4-[4-(4-Amino-isoxazol-3-yl)-phenoxymethyl]-benzoic acid methyl ester hydrochloride]
28 | 99 | CSc1ccc(COc2ccc(-c3nocc3N)cc2)cc1 [Example 35, 3-[4-(4-Methylsulfanyl-benzyloxy)-phenyl]-isoxazol-4-ylamine hydrochloride]
29 | 196 | Cc1ccc(COc2ccc(-c3nocc3N)cc2)cc1 [Example 27, 3-[4-(4-Methyl-benzyloxy)-phenyl]-isoxazol-4-ylamine hydrochloride]
30 | 191 | CS(=O)(=O)c1ccc(COc2ccc(-c3nocc3N)cc2)c(Cl)c1 [Example 8, 3-[4-(2-Chloro-4-methanesulfonyl-benzyloxy)-phenyl]-isoxazol-4-ylamine]
31 | 51 | Nc1conc1-c1ccc(OCc2ccc(SC(F)(F)F)cc2)cc1 [Example 36, 3-[4-(4-Trifluoromethylsulfanyl-benzyloxy)-phenyl]-isoxazol-4-ylamine hydrochloride]
32 | 161 | CC(C)c1ccc(COc2ccc(-c3nocc3N)cc2)cc1 [Example 29, 3-[4-(4-Isopropyl-benzyloxy)-phenyl]-isoxazol-4-ylamine]
33 | 65 | CCS(=O)(=O)c1ccc(COc2ccc(-c3nocc3N)cc2)cc1 [Example 31, 3-[4-(4-Ethanesulfonyl-benzyloxy)-phenyl]-isoxazol-4-ylamine]
34 | 162 | Nc1conc1-c1ccc(OCc2ccc(Cl)c(Cl)c2)cc1 [Example 26, 3-[4-(3,4-Dichloro-benzyloxy)-phenyl]-isoxazol-4-ylamine hydrochloride]

tested on: not given; assay: not given; settings: not given

Row | melting point [°C] | SMILES
35 | 92 to 98 | COc1ccc(COc2ccc(-c3nocc3N)cc2)cc1 [Example 4, 3-[4-(4-Methoxy-benzyloxy)-phenyl]-isoxazol-4-ylamine]
36 | 174 to 176 | Nc1conc1-c1ccc(OCc2ccc(Cl)cc2)cc1 (as salt: hydrochloride) [Example 25, 3-[4-(4-Chloro-benzyloxy)-phenyl]-isoxazol-4-ylamine hydrochloride]

— patent US9290465B2, “Substituted isoxazole amine compounds as inhibitors of SCD1” (Hoffmann-La Roche Inc., priority 2012, dated 2016)
